Here are results for 13 molecules from US11952346B2, “Modulators of mas-related G-protein receptor X2 and related products and methods” (Escient Pharmaceuticals, Inc., priority 2020, dated 2024).

pIC50: −log10 of the molar value.

The assay addresses T1, human MRGPRX2 (Homo sapiens, UniProt Q96LB1).
T1 construct: expressed in transfected cells
T1 sequence (Q96LB1 1-330): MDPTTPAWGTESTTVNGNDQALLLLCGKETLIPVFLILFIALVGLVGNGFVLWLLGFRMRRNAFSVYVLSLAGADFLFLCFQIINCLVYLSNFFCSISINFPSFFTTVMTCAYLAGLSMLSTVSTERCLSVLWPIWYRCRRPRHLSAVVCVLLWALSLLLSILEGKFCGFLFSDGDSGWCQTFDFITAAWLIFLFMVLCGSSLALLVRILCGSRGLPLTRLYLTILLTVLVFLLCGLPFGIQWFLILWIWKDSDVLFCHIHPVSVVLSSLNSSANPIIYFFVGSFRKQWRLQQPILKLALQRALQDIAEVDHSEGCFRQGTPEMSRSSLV
In words: MRGPRX2 antagonist activity, IP-One HTRF assay in CHO cells expressing human MRGPRX2 versus Cortistatin-14. The assay is classed as cell-based. The following applies: CHO cells stably expressing human MRGPRX2; versus 0.3 uM Cortistatin-14 agonist; IP-1 HTRF readout; read-out: MRGPR2 Antagonist Activity. Here is the method:
CHO cells stably transfected to express human MRGPRX2 were maintained in an incubator at 37° C. with 5% CO2 and grown in F12 (HAM) media with 10% fetal bovine serum (FBS), 1% Glutamax, 1% penicillin/streptomycin, 800 μg/mL Geneticin (G418), and 300 μg/mL Hygromycin B. Cells were plated in a 384-well assay plate at 20,000 cells per well in 12 μL of Opti-MEM and kept in an incubator overnight. On the day of the assay, compounds solubilized at 10 mM in DMSO were added as a 10-point curve (30 uM final top concentration with 1:3 serial dilutions) using a Tecan D300E digital dispenser. Agonists were diluted in assay buffer (final concentrations of 5.7 mM Tris-HCl, 43 mM NaCl, 50 mM LiCI, pH=8) and 2 μL of the agonist Cortistatin-14 (CPC Scientific, catalog CORT-002) are added to each well. Final concentrations of agonists were […] Cortistatin-14. Final concentrations of DMSO were kept consistent across the plate. Plates were incubated in the dark for 1 hr at 37° C. and then for 1 hr at room temperature. IP-1 standards and HTRF detection reagents were added according to the IP-One—Gq Kit purchased from Cisbio (part number 621PAPEJ) and incubated in the dark for 1 hr at room temperature. The plate was read on a Molecular Devices SpectraMax iD5 plate reader. The HTRF ratio was calculated from the raw data and graphed using GraphPad Prism to calculate an IC50 value for each compound.
The activity ranges are denoted as follows: “+++++” denotes antagonist activity <100 nM; “++++” denotes antagonist activity between 100 and 500 nM; “+++” denotes activity between 501 and 1000 nM; “++” denotes activity between 1001 and 2500 nM; and “+” denotes activity >2500 nM.
Take `O=C(N[C@H]1CC[C@@H](Nc2cc(Cl)nc(C(F)(F)F)c2)CC1)c1ccc(F)cc1` [Example 7, N-(1S,4S)-[4-[[2-chloro-6-(trifluoromethyl)-4-pyridyl]amino]cyclohexyl]-4-fluoro-benzamide]: the pIC50 was 6.00 to 6.30. Then `O=C(N[C@H]1CC[C@@H](Nc2cc(C3CC3)nc(C(F)(F)F)c2)CC1)c1ccc(F)cc1` [Example 8, N-(1S, 4S)-[4-[[2-cyclopropyl-6-(trifluoromethyl)-4-pyridyl]amino]cyclohexyl]-4-fluoro-benzamide], with 5.60 to 6.00. As for `COc1ccc(C(=O)N[C@H]2CC[C@@H](Nc3cc(Nc4cccc(C)c4)nc(C(F)(F)F)c3)CC2)cc1` [Example 9, 4-methoxy-N-[4-[[2-(3-methylanilino)-6-(trifluoromethyl)-4-pyridyl]amino]cyclohexyl]benzamide], the figure is 5.60 to 6.00; as for `O=C(N[C@H]1CC[C@@H](Nc2cc(C(F)(F)F)nc(Nc3ccccc3)n2)CC1)c1ccc(F)cc1` [Example 10, N-(1S,4S)-[4-[[2-anilino-6-(trifluoromethyl)pyrimidin-4-yl]amino}cyclohexyl]-4-fluoro-benzamide], 5.60 to 6.00; as for `CCN(C)c1nc(N[C@H]2CC[C@@H](NC(=O)c3ccc(N(C)C)cc3)CC2)cc(C(F)(F)F)n1` [Example 11, 4-(dimethylamino)-N-(1S,4S)-[4-[[2-[ethyl(methyl)amino]-6-(trifluoromethyl)pyrimidin-4-yl]amino]cyclohexyl] benzamide], 6.30 to 7.00.

For `CCNc1nc(N[C@H]2CC[C@@H](NC(=O)c3ccc(OC)cc3)CC2)cc(C(F)(F)F)n1` [Example 12, N-(1S,4S)-[4-[[2-(ethylamino)-6-(trifluoromethyl)pyrimidin-4-yl]amino]cyclohexyl]-4-methoxy-benzamide], the pIC50 was under 5.60. Regarding `O=C(N[C@H]1CC[C@@H](Nc2cc(C(F)(F)F)cc(C(F)(F)F)c2)CC1)c1ccccc1` [Example 13, N-((1S,4S)-4-((3,5-bis(trifluoromethyl)phenyl)amino)cyclohexyl)benzamide], the pIC50 was under 5.60. As for `COc1ccc(C(=O)N[C@H]2CC[C@@H](Nc3cc(C(F)(F)F)cc(C(F)(F)F)c3)CC2)cc1` [Example 14, N-((1S,4S)-4-((3,5-bis(trifluoromethyl)phenyl)amino)cyclohexyl)-4-methoxybenzamide], the figure is under 5.60; as for `CN(C)c1cccc(C(=O)N[C@H]2CC[C@@H](Nc3cc(C(F)(F)F)nc(C(F)(F)F)c3)CC2)c1` [Example 15, N-(1S,4S)-[4-[[2,6-bis(trifluoromethyl)-4-pyridyl]amino]cyclohexyl]-3-(dimethylamino)benzamide], 6.30 to 7.00; as for `COc1ccc(C(=O)N[C@H]2CC[C@@H](Nc3cc(C(F)(F)F)nc(N(C)C)n3)CC2)cc1` [Example 16, N-(1S,4S)-[4-[[2-(dimethylamino)-6-(trifluoromethyl)pyrimidin-4-yl]amino]cyclohexyl]-4-methoxy-benzamide], 6.00 to 6.30. For `N#Cc1ccc(N[C@H]2CC[C@@H](NC(=O)c3cnn(CC(F)(F)F)c3)CC2)cc1C(F)(F)F` [Example 17, N-((1s,4s)-4-((4-cyano-3-(trifluoromethyl)phenyl)amino)cyclohexyl)-1-(2,2,2-trifluoroethyl)-1H-pyrazole-4-carboxamide], the pIC50 was over 7.00.

As for `COc1ccc(C(=O)N[C@@H]2CCC[C@H](Nc3cc(C(F)(F)F)nc(C(F)(F)F)c3)C2)cc1` [example 1, N-((1R,3S)-3-((2,6-bis(trifluoromethyl)pyridin-4-yl)amino)cyclohexyl)-4-methoxybenzamide], the pIC50 was under 5.60. Regarding `O=C(N[C@H]1CC[C@@H](Nc2cc(C(F)(F)F)nc(C(F)(F)F)c2)CC1)c1ccccc1` [example 3, N-((1S,4S)-4-((2,6-bis(trifluoromethyl)pyridin-4-yl)amino)cyclohexyl)benzamide], the pIC50 is 6.00 to 6.30.
